Results from patent publication US20080255085A1, “Novel Imidazo [4,5-b] Pyridine Derivatives as Inhibitors of Glycogen Synthase Kinase 3 for Use in the Treatment of Dementia and Neurodegenerative Disorders” (ASTRAZENECA AB, priority 2005, published 2008).
Counter-ions that a name gives are not always drawn.

biological target: T1, GSK3β (Homo sapiens, UniProt P49841); experiment: GSK3β Scintillation Proximity Assay (ATP competition); assay type: biochemical; details: recombinant human GSK3; 1 μM ATP; Km of ATP 20 μM used to calculate Ki; 20 minutes at room temperature
T1 construct: purchased Dundee University, UK
Procedure: Determination of ATP Competition in Scintillation Proximity GSK3β Assay.
GSK3β Scintillation Proximity Assay.
The competition experiments were carried out in duplicate with 10 different concentrations of the inhibitors in clear-bottom microtiter plates (Wallac, Finland). A biotinylated peptide substrate, Biotin-Ala-Ala-Glu-Glu-Leu-Asp-Ser-Arg-Ala-Gly-Ser(PO3H2)-Pro-Gln-Leu (AstraZeneca, Lund), was added at a final concentration of 1 μM in an assay buffer containing 1 mU recombinant human GSK3 (Dundee University, UK), 12 mM morpholinepropanesulfonic acid (MOPS), pH 7.0, 0.3 mM EDTA, 0.01% β-mercaptorethanol, 0.004% Brij 35 (a […] detergent), 0.5% glycerol and 0.5 μg BSA/25 μl. The reaction was initiated by the addition of 0.04 μCi [γ-^33P]ATP (Amersham, UK) and unlabelled ATP at a final concentration of 1 μM and assay volume of 25 μl. After incubation for 20 minutes at room temperature, each reaction was terminated by the addition of 25 μl stop solution containing 5 mM EDTA, […] ATP, 0.1% Triton X-100 and 0.25 mg streptavidin coated Scintillation Proximity Assay (SPA) beads (Amersham, UK). After 6 hours the radioactivity was determined in a liquid scintillation counter (1450 MicroBeta Trilux, Wallac). The inhibition curves were analysed by non-linear regression using GraphPad Prism, USA. The Km value of ATP for GSK3β, used to calculate the inhibition constants (Ki) of the various compounds, was 20 μM.

T1 sequence (P49841 whole entry): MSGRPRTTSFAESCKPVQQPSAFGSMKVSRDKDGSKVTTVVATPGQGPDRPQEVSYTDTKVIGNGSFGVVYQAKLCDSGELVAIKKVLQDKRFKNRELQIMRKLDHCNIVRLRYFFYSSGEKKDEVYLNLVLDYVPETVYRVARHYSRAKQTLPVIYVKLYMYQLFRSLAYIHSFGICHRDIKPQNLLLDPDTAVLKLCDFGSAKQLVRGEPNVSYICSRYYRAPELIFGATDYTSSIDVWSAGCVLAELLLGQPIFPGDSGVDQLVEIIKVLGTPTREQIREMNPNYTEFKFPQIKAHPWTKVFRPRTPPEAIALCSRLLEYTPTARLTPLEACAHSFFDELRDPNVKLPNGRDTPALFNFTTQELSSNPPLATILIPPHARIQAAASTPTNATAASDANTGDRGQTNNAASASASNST

Q: With `COc1cccc(-c2ccnc3[nH]c(-c4ccc(S(=O)(=O)N5CCN(C)CC5)cc4)nc23)c1` [Example 2, 7-(3-Methoxyphenyl)-2-{4-[(4-methylpiperazin-1-yl)sulfonyl]phenyl}-3H-imidazo[4,5-b]pyridine hydrochloride] as the compound, how does the Ki read?
A: 0.124 µM

Q: With `COc1ccc(-c2ccnc3[nH]c(-c4ccc(CN5CCCCC5)cc4)nc23)cc1` [Example 6, 7-(4-Methoxyphenyl)-2-[4-(piperidin-1-ylmethyl)phenyl]-3H-imidazo[4,5-b]pyridine hydrochloride] as the compound, how does the Ki read?
A: 0.031 µM

Q: Which Ki does the source give for `COc1ccc(-c2ccnc3[nH]c(-c4ccc(C(=O)NCCN5CCOCC5)cc4)nc23)cc1` [Example 7, 4-[7-(4-Methoxyphenyl)-3H-imidazo[4,5-b]pyridin-2-yl]-N-(2-morpholin-4-ylethyl)benzamide hydrochloride] here?
A: 0.044 µM

Q: With `CN1CCN(C(=O)c2ccc(-c3nc4c(-c5cccnc5)ccnc4[nH]3)cc2)CC1` [Example 9, 2-{4-[(4-Methylpiperazin-1-yl)carbonyl]phenyl}-7-pyridin-3-yl-3H-imidazo[4,5-b]pyridine hydrochloride] as the compound, how does the Ki read?
A: 0.254 µM
